Test results taken from PubChem BioAssay (NCI).
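Test compounds were applied to cells in 96-well plates for 48 hours at 5 doses. At the GI50, growth is halved. TGI is the concentration that stops growth completely.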

Legend:
Test in all cases: NCI tumour cell line growth inhibition, 48 h
HCC-2998 colon = test system: HCC-2998 colon
COLO 205 colon = test system: COLO 205 colon
CCRF-CEM leukemia = test system: CCRF-CEM leukemia
NCI-H23 lung = test system: NCI-H23 lung
HOP-62 NSCLC = test system: HOP-62 NSCLC
U251 CNS = test system: U251 CNS
NCI/ADR-RES ovarian = test system: NCI/ADR-RES ovarian
NCI-H522 lung = test system: NCI-H522 lung
SN12C renal = test system: SN12C renal
SW-620 colon = test system: SW-620 colon
EKVX NSCLC = test system: EKVX NSCLC
UACC-257 melanoma = test system: UACC-257 melanoma
HOP-92 NSCLC = test system: HOP-92 NSCLC
HCT-15 colon = test system: HCT-15 colon
MCF7 breast = test system: MCF7 breast
SR leukemia = test system: SR leukemia
UACC-62 melanoma = test system: UACC-62 melanoma
HL-60(TB) leukemia = test system: HL-60(TB) leukemia
M14 melanoma = test system: M14 melanoma
A498 renal = test system: A498 renal
MDA-MB-231 breast = test system: MDA-MB-231 breast
A549 NSCLC = test system: A549 NSCLC
MOLT-4 leukemia = test system: MOLT-4 leukemia
HCT-116 colon = test system: HCT-116 colon
LOX IMVI melanoma = test system: LOX IMVI melanoma
SK-MEL-5 melanoma = test system: SK-MEL-5 melanoma
K-562 leukemia = test system: K-562 leukemia
ACHN renal = test system: ACHN renal
OVCAR-4 ovarian = test system: OVCAR-4 ovarian
SF-268 CNS = test system: SF-268 CNS
SF-295 CNS = test system: SF-295 CNS
MALME-3M melanoma = test system: MALME-3M melanoma
SNB-75 CNS = test system: SNB-75 CNS
NCI-H460 lung = test system: NCI-H460 lung
CAKI-1 renal = test system: CAKI-1 renal
BT-549 breast = test system: BT-549 breast
UO-31 renal = test system: UO-31 renal
MDA-MB-435 = test system: MDA-MB-435
SF-539 CNS = test system: SF-539 CNS
T-47D breast = test system: T-47D breast
PC-3 prostate = test system: PC-3 prostate
786-0 renal = test system: 786-0 renal
RPMI-8226 leukemia = test system: RPMI-8226 leukemia
OVCAR-8 ovarian = test system: OVCAR-8 ovarian
IGROV1 ovarian = test system: IGROV1 ovarian
HS 578T breast = test system: HS 578T breast
KM12 colon = test system: KM12 colon
SK-MEL-28 melanoma = test system: SK-MEL-28 melanoma
SNB-19 CNS = test system: SNB-19 CNS
SK-OV-3 ovarian = test system: SK-OV-3 ovarian
OVCAR-5 ovarian = test system: OVCAR-5 ovarian
DU-145 prostate = test system: DU-145 prostate
TK-10 renal = test system: TK-10 renal
RXF 393 renal = test system: RXF 393 renal
NCI-H226 lung = test system: NCI-H226 lung
HT29 colon = test system: HT29 colon

O=C(N/N=C\c1ccc(F)cc1)c1ccc2nc(-c3ccc(Br)cc3)[nH]c2c1
GI50 (HCC-2998 colon): 2.28 µM | TGI (HCC-2998 colon): 5.48 µM | GI50 (COLO 205 colon): 1.91 µM | TGI (COLO 205 colon): 4.43 µM | GI50 (CCRF-CEM leukemia): 3.5 µM | TGI (CCRF-CEM leukemia): 32.1 µM | GI50 (NCI-H23 lung): 1.88 µM | TGI (NCI-H23 lung): 3.67 µM | GI50 (HOP-62 NSCLC): 1.86 µM | TGI (HOP-62 NSCLC): 3.72 µM | GI50 (U251 CNS): 1.91 µM | TGI (U251 CNS): 3.38 µM | GI50 (NCI/ADR-RES ovarian): 7.97 µM | TGI (NCI/ADR-RES ovarian): > 100 µM | GI50 (NCI-H522 lung): 1.78 µM | TGI (NCI-H522 lung): 3.96 µM | GI50 (SN12C renal): 1.78 µM | TGI (SN12C renal): 3.63 µM | GI50 (SW-620 colon): 1.9 µM | TGI (SW-620 colon): 3.76 µM | GI50 (EKVX NSCLC): 2.09 µM | TGI (EKVX NSCLC): 4.8 µM | GI50 (UACC-257 melanoma): 2.03 µM | TGI (UACC-257 melanoma): 4.48 µM | GI50 (HOP-92 NSCLC): 2.13 µM | TGI (HOP-92 NSCLC): 4.54 µM | GI50 (HCT-15 colon): 2.19 µM | TGI (HCT-15 colon): 5.08 µM | GI50 (MCF7 breast): 1.7 µM | TGI (MCF7 breast): 3.88 µM | GI50 (SR leukemia): 2.75 µM | TGI (SR leukemia): 8.79 µM | GI50 (UACC-62 melanoma): 2.69 µM | TGI (UACC-62 melanoma): 8.76 µM | GI50 (HL-60(TB) leukemia): 14.6 µM | TGI (HL-60(TB) leukemia): > 100 µM | GI50 (M14 melanoma): 2.08 µM | TGI (M14 melanoma): 4.52 µM | GI50 (A498 renal): 1.94 µM | TGI (A498 renal): 5.31 µM | GI50 (MDA-MB-231 breast): 1.93 µM | TGI (MDA-MB-231 breast): 4.49 µM | GI50 (A549 NSCLC): 1.9 µM | TGI (A549 NSCLC): 3.7 µM | GI50 (MOLT-4 leukemia): 2.17 µM | TGI (MOLT-4 leukemia): 5.62 µM | GI50 (HCT-116 colon): 1.87 µM | TGI (HCT-116 colon): 3.95 µM | GI50 (LOX IMVI melanoma): 1.74 µM | TGI (LOX IMVI melanoma): 3.54 µM | GI50 (SK-MEL-5 melanoma): 3.25 µM | TGI (SK-MEL-5 melanoma): 13.4 µM | GI50 (K-562 leukemia): 2.73 µM | TGI (K-562 leukemia): 8.09 µM | GI50 (ACHN renal): 1.81 µM | TGI (ACHN renal): 3.69 µM | GI50 (OVCAR-4 ovarian): 2.51 µM | TGI (OVCAR-4 ovarian): 7.13 µM | GI50 (SF-268 CNS): 3.26 µM | TGI (SF-268 CNS): 13 µM | GI50 (SF-295 CNS): 2.18 µM | TGI (SF-295 CNS): 5.24 µM | GI50 (MALME-3M melanoma): 1.65 µM | TGI (MALME-3M melanoma): 3.43 µM | GI50 (SNB-75 CNS): 1.87 µM | TGI (SNB-75 CNS): 4.41 µM | GI50 (NCI-H460 lung): 1.72 µM | TGI (NCI-H460 lung): 3.27 µM | GI50 (CAKI-1 renal): 2.2 µM | TGI (CAKI-1 renal): 5.41 µM | GI50 (BT-549 breast): 2.34 µM | TGI (BT-549 breast): 6.08 µM | GI50 (UO-31 renal): 1.6 µM | TGI (UO-31 renal): 3.31 µM | GI50 (MDA-MB-435): 1.96 µM | TGI (MDA-MB-435): 4.12 µM | GI50 (SF-539 CNS): 1.74 µM | TGI (SF-539 CNS): 3.42 µM | GI50 (T-47D breast): 1.78 µM | TGI (T-47D breast): 3.92 µM | GI50 (PC-3 prostate): 1.79 µM | TGI (PC-3 prostate): 3.4 µM | GI50 (786-0 renal): 2.03 µM | TGI (786-0 renal): 3.88 µM | GI50 (RPMI-8226 leukemia): 2.97 µM | TGI (RPMI-8226 leukemia): 9.39 µM | GI50 (OVCAR-8 ovarian): 1.98 µM | TGI (OVCAR-8 ovarian): 4.14 µM | GI50 (IGROV1 ovarian): 1.88 µM | TGI (IGROV1 ovarian): 3.89 µM | GI50 (HS 578T breast): 2.04 µM | TGI (HS 578T breast): 5.39 µM | GI50 (KM12 colon): 3.2 µM | TGI (KM12 colon): 15.1 µM | GI50 (SK-MEL-28 melanoma): 1.86 µM | TGI (SK-MEL-28 melanoma): 3.8 µM | GI50 (SNB-19 CNS): 2.27 µM | TGI (SNB-19 CNS): 4.96 µM | GI50 (SK-OV-3 ovarian): 2.09 µM | TGI (SK-OV-3 ovarian): 5.17 µM | GI50 (OVCAR-5 ovarian): 2.28 µM | TGI (OVCAR-5 ovarian): 5.73 µM | GI50 (DU-145 prostate): 2.07 µM | TGI (DU-145 prostate): 4.97 µM | GI50 (TK-10 renal): 2.59 µM | TGI (TK-10 renal): 5.48 µM | GI50 (RXF 393 renal): 1.74 µM | TGI (RXF 393 renal): 3.53 µM | GI50 (NCI-H226 lung): 2.62 µM | TGI (NCI-H226 lung): 16.6 µM | GI50 (HT29 colon): 1.85 µM | TGI (HT29 colon): 3.47 µM
